# Data taken from paper PMC12687421, “Characterisation of an allosteric site in PLCγ enzymes and implications for development of their specific inhibitors” (Biochemical Journal, 2025).
# Tests used:
# [1] = test system: PLCγ1^S345F; assay: PLC activity assay 1 (A1), PLCγ1 S345F variant; type: biochemical, human
# Description: (§1) The effect of nucleotide inhibition on PLC activity was measured using either a membrane-based assay with the fluorescent substrate (XY-69) incorporated into liposomes or using a small soluble substrate, Aldol 518 myo-inositol-1-phosphate (Aldol). Both methods utilised the same PLC assay buffer [20 mM Hepes-KOH, 70 mM KCl, 3 mM EGTA, 2.97 mM CaCl2, 2 mM TCEP and fatty acid-free bovine serum albumin (FAF-BSA; 50 μg/ml) (pH 7.5)]. Both assays were performed in low volume black 384-well plates (Greiner Bio-One), were composed of a final assay volume of 20 μl and were monitored in a Clariostar plate reader (BMG Labtech). […] The excitation and emission wavelengths were 588–15 and 642–20, respectively.
# (§2) A CLARIOstar plate reader (BMG Labtech) was used to measure the production of the fluorescent product. The excitation and emission wavelengths were 485–15 and 520–20, respectively. Each experiment was performed in at least triplicate; in many cases, nine-fold replicates were generated. The enzyme progress curves were plotted for each concentration of nucleotide using Graphpad Prism software. The initial linear rate of product generation was calculated and converted to a % inhibition when compared with the rate of PLC activity in the absence of nucleotide. […]
# [2] = test system: PLCγ1^D1165H; assay: PLC activity assay 1 (A1), PLCγ1 D1165H variant; type: biochemical, human
# Description: as §1, §2
# [3] = target: T1, PLCγ1^wt (Homo sapiens, UniProt P19174, I813T); assay: Assay 1 (A1) with 10% nickel lipids (His-tagged PLCγ1 immobilised on liposomes); type: biochemical; details: 10% Ni-lipids vs control
# T1 construct: specific activities of PLCγ1^wt and PLCγ2^wt full-length proteins; made in house; host or cells: Escherichia coli T7 Express lysY/Iq
# T1 sequence (P19174 1-1291 isoform P19174-2 I813T): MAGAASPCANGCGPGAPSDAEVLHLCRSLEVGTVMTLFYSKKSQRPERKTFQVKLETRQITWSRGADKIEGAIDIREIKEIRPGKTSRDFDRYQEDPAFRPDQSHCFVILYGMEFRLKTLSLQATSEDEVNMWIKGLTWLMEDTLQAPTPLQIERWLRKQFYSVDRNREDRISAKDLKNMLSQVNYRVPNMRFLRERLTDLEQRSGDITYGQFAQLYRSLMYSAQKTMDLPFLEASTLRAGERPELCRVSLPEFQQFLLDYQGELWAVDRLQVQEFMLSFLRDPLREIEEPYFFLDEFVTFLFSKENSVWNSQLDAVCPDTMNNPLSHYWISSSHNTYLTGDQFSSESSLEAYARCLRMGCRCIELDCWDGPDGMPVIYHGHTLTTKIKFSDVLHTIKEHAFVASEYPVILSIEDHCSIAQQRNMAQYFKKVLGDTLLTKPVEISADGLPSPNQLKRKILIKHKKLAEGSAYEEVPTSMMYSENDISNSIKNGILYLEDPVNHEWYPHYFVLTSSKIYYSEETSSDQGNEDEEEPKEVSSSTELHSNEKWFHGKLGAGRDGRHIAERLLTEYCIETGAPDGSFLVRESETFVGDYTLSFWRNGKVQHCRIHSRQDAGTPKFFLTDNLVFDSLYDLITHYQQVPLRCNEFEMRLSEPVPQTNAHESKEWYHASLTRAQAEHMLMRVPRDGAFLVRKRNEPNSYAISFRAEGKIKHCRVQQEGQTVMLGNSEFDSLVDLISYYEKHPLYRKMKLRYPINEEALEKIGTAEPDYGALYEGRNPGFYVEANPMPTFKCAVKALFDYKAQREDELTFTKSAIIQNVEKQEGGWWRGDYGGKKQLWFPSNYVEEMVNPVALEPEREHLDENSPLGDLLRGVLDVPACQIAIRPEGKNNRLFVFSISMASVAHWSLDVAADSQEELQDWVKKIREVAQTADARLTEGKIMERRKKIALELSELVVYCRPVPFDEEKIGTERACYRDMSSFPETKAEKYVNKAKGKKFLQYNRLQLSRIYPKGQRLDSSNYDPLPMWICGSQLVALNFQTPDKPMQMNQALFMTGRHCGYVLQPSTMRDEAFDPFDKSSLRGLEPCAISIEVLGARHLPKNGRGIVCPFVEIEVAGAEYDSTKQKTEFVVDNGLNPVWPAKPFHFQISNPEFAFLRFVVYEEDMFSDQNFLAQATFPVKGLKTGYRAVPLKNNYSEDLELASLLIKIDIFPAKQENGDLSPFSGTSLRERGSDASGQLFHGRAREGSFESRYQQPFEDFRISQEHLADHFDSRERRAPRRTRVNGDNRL
# From the text: The standard liposome components were designed to mimic a typical plasma membrane composition: 49% PE (brain or synthetic), 1% phosphatidylinositol 4,5-bisphosphate (PIP2), 20% brain phosphatidylserine (PS), 15% phosphatidylcholine (PC), 10% cholesterol and 5% sphingomyelin. The nickel liposome mix consisted of 39% PE (brain or synthetic), 1% PIP2, 20% brain PS, 15% PC, 10% cholesterol, 10% nickel lipid and 5% sphingomyelin.
# A CLARIOstar plate reader (BMG Labtech) was used to measure the production of the fluorescent product. The excitation and emission wavelengths were 485–15 and 520–20, respectively. Each experiment was performed in at least triplicate; in many cases, nine-fold replicates were generated. The enzyme progress curves were plotted for each concentration of nucleotide using Graphpad Prism software. The initial linear rate of product generation was calculated and converted to a % inhibition when compared with the rate of PLC activity in the absence of nucleotide. These % inhibition values were plotted against the logarithm of the nucleotide concentration in Graphpad Prism and the data fitted with the function (Inhibitor) vs. response–variable slope (four parameters). The resultant fit yielded the IC50 values for the nucleotide inhibition.
# The standard XY-69 assay format outlined above was repeated with the addition of 10% nickel lipids in the liposome mixture. […]
IC50 relative to PLCγ1^wt (fold higher) [1],IC50 relative to PLCγ1^wt (fold higher) [2],Compound,effect of immobilisation to liposomes on inhibition of PLC activity [3]
5–7 fold,5–7 fold,Nc1ncnc2c1ncn2[C@@H]1O[C@H](COP(=O)(O)OP(=O)(O)O)[C@@H](O)[C@H]1O [ADP],
,,Nc1ncnc2c1ncn2[C@@H]1O[C@H](COP(=O)(O)OP(=O)(O)OP(=O)(O)O)[C@@H](O)[C@H]1O [ATP],"prevented or, at higher concentrations, reduced inhibition"
